From patent publication US7799785B2, “Substituted tetracyclic tetahydrofuran, pyrrolidine and tetrahydrothiophene derivatives” (Janssen Pharmaceutica NV, priority 2004, dated 2010) come the findings set out here.

One series has as its target T1, NET (Rattus norvegicus, UniProt Q63380).
T1 construct: Cortex from rat brain was collected and homogenised; from tissue; host or cells: rat brain cortex homogenate/membranes
Briefly: In vitro determination of NET reuptake inhibition ([3H]Nixosetine binding, rat brain cortex membranes). As for the experimental part: In vitro Determination of NET Reuptake Inhibition
Cortex from rat brain was collected and homogenised using an Ultra-Turrax T25 and a Dual homogeniser in ice-cold homogenising buffer containing Tris, NaCl and KCl (50 mM, 120 mM and 5 mM, respectively, pH 7.4) prior to dilution to an appropriate protein concentration optimised for specific and non-specific binding. […] Membrane-bound activity was detected by filtration through a Packard Filtermate harvester onto GF/B Unifilterplates, washed with ice-cold Tris-HCl buffer, containing NaCl and KCl (50 mM, 120 mM and 4 mM; pH 7.4; 6×0.5 ml). Filters were allowed to dry for 24 h before adding scintillation fluid. Scintillation fluid was allowed to saturate filters for 24 h before counting in a Topcount scintillation counter. Percentage specific bound and competition binding curves were calculated using S-Plus software (Insightful).

In series [1] the target is T2, human cloned 5-HT2A receptor, expressed in L929 cells (Homo sapiens, UniProt P28223).
T2 construct: expressed in transfected cells; host or cells: L929 cells
T2 sequence (P28223 whole entry): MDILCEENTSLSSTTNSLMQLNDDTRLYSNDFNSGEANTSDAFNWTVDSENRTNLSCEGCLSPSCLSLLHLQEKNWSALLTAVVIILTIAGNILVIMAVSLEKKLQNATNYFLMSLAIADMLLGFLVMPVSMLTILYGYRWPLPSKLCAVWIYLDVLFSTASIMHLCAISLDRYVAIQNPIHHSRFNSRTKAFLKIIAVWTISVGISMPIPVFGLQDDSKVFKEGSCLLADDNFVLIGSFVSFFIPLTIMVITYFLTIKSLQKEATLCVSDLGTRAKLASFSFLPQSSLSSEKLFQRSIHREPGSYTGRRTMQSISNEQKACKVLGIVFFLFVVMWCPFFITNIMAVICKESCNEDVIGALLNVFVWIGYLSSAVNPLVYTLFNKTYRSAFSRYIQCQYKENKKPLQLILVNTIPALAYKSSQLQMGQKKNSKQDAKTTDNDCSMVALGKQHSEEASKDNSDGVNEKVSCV
Briefly: In vitro radioligand binding affinity for 5-HT2A receptor ([125I]R91150). The settings on record: read-out: h-5HT2A (converted). On the procedure:
(§1) In vitro Binding Affinity for 5-HT2A and 5-HT2C Receptors
The interaction of the compounds of Formula (I) with 5-HT2A and 5-HT2C receptors was assessed in in vitro radioligand binding experiments. In general, a low concentration of a radioligand with a high binding affinity for the receptor is incubated with a sample of a tissue preparation enriched in a particular receptor (1 to 5 mg tissue) in a buffered medium (0.2 to 5 ml). During the incubation, the radioligands bind to the receptor. When equilibrium of binding is reached, the receptor bound radioactivity is separated from the non-bound radioactivity, and the receptor bound activity is counted. The interaction of the test compounds with the receptors is assessed in competition binding experiments. Various concentrations of the test compound are added to the incubation mixture containing the tissue preparation and the radioligand. Binding of the radioligand will be inhibited by the test compound in proportion to its binding affinity and its concentration. The affinities of the compounds for the 5-HT2 receptors were measured by means of radioligand binding studies conducted with: (a) human cloned 5-HT2A receptor, expressed in L929 cells using [^125I]R91150 as radioligand and (b) human cloned 5-HT2C receptor, expressed in CHO cells using [^3H]mesulergine as radioligand.

Series [2] has as its target T3, human cloned 5-HT2C receptor, expressed in CHO cells (Homo sapiens, UniProt P28335).
T3 construct: expressed in transfected cells; host or cells: CHO cells
T3 sequence (P28335 33-458): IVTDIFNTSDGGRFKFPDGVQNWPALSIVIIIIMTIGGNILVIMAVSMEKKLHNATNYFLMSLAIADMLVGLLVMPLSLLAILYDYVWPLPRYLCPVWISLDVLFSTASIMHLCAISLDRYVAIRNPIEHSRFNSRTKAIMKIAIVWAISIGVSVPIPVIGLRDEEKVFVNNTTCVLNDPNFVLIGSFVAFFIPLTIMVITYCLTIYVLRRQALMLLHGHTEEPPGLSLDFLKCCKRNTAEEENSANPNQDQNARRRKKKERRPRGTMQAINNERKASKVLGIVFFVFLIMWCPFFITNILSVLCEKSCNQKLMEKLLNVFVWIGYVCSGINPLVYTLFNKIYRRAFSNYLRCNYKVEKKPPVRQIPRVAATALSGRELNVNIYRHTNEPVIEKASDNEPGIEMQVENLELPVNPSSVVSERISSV
Briefly: In vitro radioligand binding affinity for 5-HT2C receptor ([3H]mesulergine). As for the experimental part:
as §1
The interaction of the compounds of Formula (I) with 5-HT2A and 5-HT2C receptors was assessed in in vitro radioligand binding experiments. […] During the incubation, the radioligands bind to the receptor. When equilibrium of binding is reached, the receptor bound radioactivity is separated from the non-bound radioactivity, and the receptor bound activity is counted. The interaction of the test compounds with the receptors is assessed in competition binding experiments. Various concentrations of the test compound are added to the incubation mixture containing the tissue preparation and the radioligand. Binding of the radioligand will be inhibited by the test compound in proportion to its binding affinity and its concentration.

Series [3] has as its target T4, human Dopamine D2L receptor (Homo sapiens, UniProt P14416).
T4 construct: expressed in transfected cells; host or cells: CHO cells
Briefly: In vitro binding affinity for human D2L receptor ([3H]Spiperone). The conditions noted are these: human D2L receptor-transfected CHO cell membranes. On the procedure: In vitro Binding Affinity for Human D2L Receptor
Frozen membranes of human Dopamine D2L receptor-transfected CHO cells were thawed, briefly homogenised using an Ultra-Turrax T25 homogeniser and diluted in Tris-HCl assay buffer containing NaCl, CaCl2, MgCl2, KCl (50, 120, 2, 1, and 5 mM respectively, adjusted to pH 7.7 with HCl) to an appropriate protein concentration optimised for specific and non-specific binding. Radioligand [^3H]Spiperone (NEN, specific activity ˜70 Ci/mmol) was diluted in assay buffer at a concentration of 2 nmol/L. Prepared radioligand (50 μl), along with 50 μl of either the 10% DMSO control, Butaclamol (10^−6 mol/l final concentration), or compound of interest, was then incubated (30 min, 37° C.) with 400 μl of the prepared membrane solution. Membrane-bound activity was filtered through a Packard Filtermate harvester onto GF/B Unifilterplates and washed with ice-cold Tris-HCl buffer (50 mM; pH 7.7; 6×0.5 ml). Filters were allowed to dry before adding scintillation fluid and counting in a Topcount scintillation counter. Percentage specific bound and competition binding curves were calculated using S-Plus software (Insightful).

pIC50: −log10 of the molar value. A value given as a limit tells only on which side of the number the result lay.

T1 sequence (Q63380 1-617): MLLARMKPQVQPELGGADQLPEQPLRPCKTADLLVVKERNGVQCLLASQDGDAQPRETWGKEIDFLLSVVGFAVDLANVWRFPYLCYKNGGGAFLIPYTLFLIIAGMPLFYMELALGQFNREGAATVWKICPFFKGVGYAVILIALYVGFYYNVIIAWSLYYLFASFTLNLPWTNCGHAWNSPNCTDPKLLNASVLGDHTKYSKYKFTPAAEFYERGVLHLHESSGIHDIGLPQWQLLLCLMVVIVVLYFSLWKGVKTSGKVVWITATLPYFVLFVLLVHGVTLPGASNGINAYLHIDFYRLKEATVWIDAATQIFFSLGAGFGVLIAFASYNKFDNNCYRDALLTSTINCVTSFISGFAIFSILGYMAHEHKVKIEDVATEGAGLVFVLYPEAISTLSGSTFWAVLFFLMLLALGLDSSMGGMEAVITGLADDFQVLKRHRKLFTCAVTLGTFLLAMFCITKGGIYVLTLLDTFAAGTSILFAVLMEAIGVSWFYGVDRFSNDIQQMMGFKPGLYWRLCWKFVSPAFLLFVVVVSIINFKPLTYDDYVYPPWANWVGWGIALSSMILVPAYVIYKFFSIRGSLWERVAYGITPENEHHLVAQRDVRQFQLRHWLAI
T4 sequence (P14416 whole entry): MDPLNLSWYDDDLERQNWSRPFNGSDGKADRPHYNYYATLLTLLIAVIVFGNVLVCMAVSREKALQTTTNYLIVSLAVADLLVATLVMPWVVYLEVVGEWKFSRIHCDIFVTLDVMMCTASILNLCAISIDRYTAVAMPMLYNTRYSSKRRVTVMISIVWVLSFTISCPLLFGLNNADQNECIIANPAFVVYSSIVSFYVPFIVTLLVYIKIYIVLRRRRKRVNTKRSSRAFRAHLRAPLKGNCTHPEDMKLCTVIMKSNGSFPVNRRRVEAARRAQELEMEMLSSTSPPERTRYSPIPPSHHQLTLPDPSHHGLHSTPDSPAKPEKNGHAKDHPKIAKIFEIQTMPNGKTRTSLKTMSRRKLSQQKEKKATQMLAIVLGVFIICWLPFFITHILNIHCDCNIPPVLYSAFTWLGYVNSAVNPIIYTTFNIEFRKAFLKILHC

As for `O=C1CO[C@H]2c3cc(F)ccc3Cc3ccccc3[C@H]2C1` [compound 31, (4aR,13bR)-12-fluoro-4,4a,9,13b-tetrahydrodibenzo[3,4:6,7]cyclohepta[1,2-b]-pyran-3(2H)-one], the melting point (in general, the temperature of the solid-liquid transition) was in the range of 146 to 148 °C.

`Fc1ccc2c(c1)[C@@H]1[C@H](C[C@@H]3CNC(=S)N31)c1ccccc1C2` [compound 8, (4aS,13bR,14aR)-6-fluoro-1,4a,9,13b,14,14a-hexahydrodibenzo[3′,4′:6′,7′]-cyclohepta[1′,2′:4,5]pyrrolo[1,2-c]imidazole-3(2H)-thione] came in with a melting point of 150 to 151 °C. In addition, the “NET Reuptake Inhibition” value at NET is 5.66.

`N[C@@H]1CO[C@H]2c3cc(F)ccc3Cc3ccccc3[C@H]2C1` [compound 30, (3S,4aR,13bR)-12-fluoro-2,3,4,4a,9,13b-hexahydrodibenzo[3,4:6,7]cyclohepta-[1,2-b]pyran-3-amine] showed a melting point of 74 to 76 °C. Further, the pIC50 (usually −log10 of the IC50, conventionally taken in molar units) at NET was 6.52.

With `CN(CCO)C[C@H]1C[C@@H]2c3ccccc3Cc3ccc(F)cc3[C@H]2N1` [43b, 2-[{[(2R,3aR,12bS)-11-fluoro-1,2,3,3a,8,12b-hexahydrodibenzo[3,4:6,7]-cyclohepta[1,2-b]pyrrol-2-yl]methyl}(methyl)amino]-ethanol], in series [1], the IC50 was 67.6 nM. Also, the figures for the pIC50 (in series [2]; in series [3]; on NET) were 7.05, 6.36 and 7.80, respectively.

For the molecule `CN1CC(=O)N2[C@H](C[C@@H]3c4ccccc4Cc4ccc(F)cc4[C@H]32)C1` [compound 13, (5aS,14bR,15aR)-7-fluoro-2-methyl-1,2,3,5a,10,14b,15,15a-octahydro-4H-dibenzo-[3′,4′:6′,7′]cyclohepta[1′,2′:4,5]pyrrolo[1,2-a]pyrazin-4-one], the melting point lay in the range of 139 to 141 °C. Besides, the “NET Reuptake Inhibition” value on NET is <5.

Consider `CN[C@@H]1CO[C@@H]2c3cc(F)ccc3Cc3ccccc3[C@H]2C1` (relative stereo) [compound 35, (3S *,4aR*,13bS*)-12-fluoro-N-methyl-2,3,4,4a,9,13b-hexahydrodibenzo[3,4:6,7]-cyclohepta[1,2-b]pyran-3-amine], for which the IC50 in series [1] is > 1000 nM. The pIC50 (in series [3]; at NET) was < 6.00 in each case.

On NET, `CN(C)[C@@H]1CO[C@H]2c3cc(F)ccc3Cc3ccccc3[C@H]2C1` [compound 32, (3S,4aR,13bR)-12-fluoro-N,N-dimethyl-2,3,4,4a,9,13b-hexahydrodibenzo[3,4:6,7]-cyclohepta[1,2-b]pyran-3-amine] had a pIC50 of 7.71.

For the molecule `CN(C)C[C@H]1C[C@@H]2c3ccccc3Cc3ccc(F)cc3[C@H]2N1C=O` [36c, (2R,3aR,12bS)-2-[(dimethylamino)methyl]-11-fluoro-3,3a,8,12b-tetrahydrodibenzo[3,4:6,7]cyclohepta[1,2-b]pyrrole-1(2H)-carbaldehyde], the IC50 in series [1] is 550 nM. Also, the pIC50 in series [2] was 7.11; in series [3], 5.31; at NET, 6.65.

On NET, `CN(C)C[C@H]1C[C@@H]2c3ccccc3Cc3ccc(F)cc3[C@H]2N1CCO` [compound 39, 2-((2R,3aR,12bS)-2-[(dimethylamino)methyl]-11-fluoro-3,3a,8,12b-tetrahydrodibenzo[3,4:6,7]cyclohepta[1,2-b]pyrrol-1(2H)-yl)ethanol] had a pIC50 of 6.90.

Regarding `CSC1=NC[C@H]2C[C@@H]3c4ccccc4Cc4ccc(F)cc4[C@H]3N12` [compound 9, (4aS,13bR,14aR)-6-fluoro-3-(methylsulfanyl)-1,4a,9,13b,14,14a-hexahydrodibenzo[3′,4′:6′,7′]cyclohepta[1′,2′:4,5]pyrrolo[1,2-c]imidazole], the negative-log IC50 (pIC50) at NET is 5.40.

With `Fc1ccc2c(c1)[C@@H]1[C@H](C[C@H]3CNC(=S)N31)c1ccccc1C2` [compound 3, (4aS,13bR,14aS)-6-fluoro-1,4a,9,13b,14,14a-hexahydrodibenzo[3′,4′:6′,7′]cycloheta[1′,2′:4,5]pyrrolo[1,2-c]imidazole-3(2H)-thione], the “NET Reuptake Inhibition” value on NET was determined as 5.24.

In turn, `CC(=O)N1[C@@H](CN(C)C)C[C@@H]2c3ccccc3Cc3ccc(F)cc3[C@H]21` [36b, [(2R,3aR,12bS)-1-acetyl-11-fluoro-1,2,3,3a,8,12b-hexahydrodibenzo[3,4:6,7]-cyclohepta[1,2-b]pyrrol-2-yl]-N,N-dimethylmethanamine] gave a negative-log IC50 (pIC50) on NET of 5.41.

As for `COC(=O)N1[C@@H](CN(C)C)C[C@@H]2c3ccccc3Cc3ccc(F)cc3[C@H]21` [36a, Methyl(2R,3aR,12bS)-2-[(dimethylamino)methyl]-11-fluoro-3,3a,8,12b-tetrahydro-dibenzo[3,4:6,7]cyclohepta[1,2-b]pyrrole-1(2H)-carboxylate], the IC50 in series [1] was > 1000 nM. For the same molecule, the results for the pIC50 (in series [2]; in series [3]; at NET) were < 6.00, < 6.00 and 6.16, respectively.

On NET, `COC(=O)N1[C@@H](CN(C)C)CC[C@@H]2c3ccccc3Cc3ccc(F)cc3[C@H]21` [compound 45, Methyl(2R,4aR,13bS)-2-[(dimethylamino)methyl]-12-fluoro-2,3,4,4a,9,13b-hexahydro-1H-dibenzo[3,4:6,7]cyclohepta[1,2-b]pyridine-1-carboxylate] had a pIC50 of 6.10.
